{"source": "ChEMBL document CHEMBL5550185", "about": "“Targeting hTERT Promoter G-Quadruplex DNA Structures with Small-Molecule Ligand to Downregulate hTERT Expression for Triple-Negative Breast Cancer Therapy” (J Med Chem, 2024)", "key": {"HeLa": {"test_system": "HeLa", "test": "Cytotoxicity against telomerase-positive human HeLa cells assessed as inhibition of cell growth incubated for 48 hrs by MTT assay", "type": "functional, cell-based"}, "[1]": {"test": "Toxicity in female Balb/c nude mouse xenografted with human MDA-MB-231 cells assessed as change in ALT level at 2 to 5 mg/kg, iv administered via tail vein every 2 days for 16 days", "type": "organism-based", "conditions": "in vivo, 384 h, dose 2-5 mg/kg, time 16 day"}, "[2]": {"test": "Toxicity in female Balb/c nude mouse xenografted with human MDA-MB-231 cells assessed as signs of discomfort at 2 to 5 mg/kg, iv administered via tail vein every 2 days for 16 days", "type": "organism-based", "conditions": "in vivo, 384 h, dose 2-5 mg/kg, time 16 day"}, "[3]": {"test": "Toxicity in female Balb/c nude mouse xenografted with human MDA-MB-231 cells assessed as signs of pain at 2 to 5 mg/kg, iv administered via tail vein every 2 days for 16 days", "type": "organism-based", "conditions": "in vivo, 384 h, dose 2-5 mg/kg, time 16 day"}, "Quadruplex DNA [4]": {"test_system": "Quadruplex DNA", "test": "Binding affinity to human TERT G4 DNA in Tris-HCl buffer at pH 7.4 assessed as fold increase in fluorescence signal at 5 uM by fluorescence spectrometer relative to control", "type": "nucleic-acid assay"}, "Quadruplex DNA [5]": {"test_system": "Quadruplex DNA", "test": "Binding affinity to Bcl-2 G4 DNA (unknown origin) assessed as thermal stability by measuring change in melting temperature at 400 uM […]", "type": "nucleic-acid assay"}, "[6]": {"test": "Upregulation of HLA-B gene expression in human MDA-MB-231 cells assessed as fold change at 1 uM measured after 48 hrs by RNA-seq analysis relative to control", "type": "functional"}, "[7]": {"test": "Upregulation of TGFB2 gene expression in human MDA-MB-231 cells assessed as fold change at 1 uM measured after 48 hrs by RNA-seq analysis relative to control", "type": "functional"}, "DNA [8]": {"test_system": "DNA", "test": "Binding affinity to Ds26 duplex DNA (unknown origin) assessed as change in enthalpy at 400 uM by ITC analysis", "type": "nucleic-acid assay"}, "MDA-MB-231 [9]": {"test_system": "MDA-MB-231", "test": "Induction of telomere dysfunction in human MDA-MB-231 cells assessed as telomer length shortening effect at 0.2 uM measured after 10 days by qRT-PCR analysis", "type": "functional, cell-based", "conditions": "time 10.0 day"}, "Quadruplex DNA [10]": {"biological_target": "Quadruplex DNA", "test": "Binding affinity to c-MYC Pu27 G4 DNA (unknown origin) assessed as dissociation constant by ITC analysis", "type": "nucleic-acid assay"}, "PC-3": {"test_system": "PC-3", "test": "Cytotoxicity against telomerase-positive human PC-3 cells assessed as inhibition of cell growth incubated for 48 hrs by MTT assay", "type": "functional, cell-based", "conditions": "PC-3, 48 h"}, "[11]": {"test": "Upregulation of TNFSF10 gene expression in human MDA-MB-231 cells assessed as fold change at 1 uM measured after 48 hrs by RNA-seq analysis relative to control", "type": "functional"}, "Quadruplex DNA [12]": {"test_system": "Quadruplex DNA", "test": "Binding affinity to CKIT-2 G4 DNA (unknown origin) assessed as change in enthalpy at 400 uM by ITC analysis", "type": "nucleic-acid assay"}, "[13]": {"test": "Upregulation of MAP1LC3B gene expression in human MDA-MB-231 cells assessed as fold change at 1 uM measured after 48 hrs by RNA-seq analysis relative to control", "type": "functional"}, "MDA-MB-231 [14]": {"test_system": "MDA-MB-231", "test": "Disruption of energy metabolism in human MDA-MB-231 cells assessed as reduction in cellular energy production by measuring reduction in oxygen consumption rate at 1.5 uM measured after 2 hrs by Seahorse XF24 analyzer", "type": "functional, cell-based"}, "Quadruplex DNA [15]": {"biological_target": "Quadruplex DNA", "test": "Binding affinity to Bcl-2 G4 DNA (unknown origin) assessed as dissociation constant by ITC analysis", "type": "nucleic-acid assay"}, "MDA-MB-231 [16]": {"test_system": "MDA-MB-231", "test": "Downregulation of DNAPKcs transcription level in human MDA-MB-231 cells at 1 uM measured after 48 hrs by RNA-seq analysis", "type": "functional, cell-based"}, "Quadruplex DNA [17]": {"biological_target": "Quadruplex DNA", "test": "Binding affinity to hTERT G4 DNA assessed as dissociation constant by ITC analysis", "type": "nucleic-acid assay, Homo sapiens"}, "MDA-MB-231 [18]": {"test_system": "MDA-MB-231", "test": "Downregulation of Artemis transcription level in human MDA-MB-231 cells at 1 uM measured after 48 hrs by RNA-seq analysis", "type": "functional, cell-based"}, "[19]": {"test": "Upregulation of PLK2 gene expression in human MDA-MB-231 cells assessed as fold change at 1 uM measured after 48 hrs by RNA-seq analysis relative to control", "type": "functional"}, "DNA [20]": {"test_system": "DNA", "test": "Binding affinity to Dt21 ssDNA (unknown origin) assessed as thermal stability by measuring change in melting temperature at 400 uM […]", "type": "nucleic-acid assay"}, "[21]": {"test": "Toxicity in female Balb/c nude mouse xenografted with human MDA-MB-231 cells assessed as pathological changes in kidney at 2 to 5 mg/kg, iv administered via tail vein every 2 days for 16 days by H and E staining based analysis", "type": "organism-based", "conditions": "in vivo, 384 h, dose 2-5 mg/kg, time 16 day"}, "MDA-MB-231 [22]": {"test_system": "MDA-MB-231", "test": "Inhibition of hTERT expression in human MDA-MB-231 cells assessed as reduction in pink foci in nucleus at 0.5 uM incubated for 48 hrs in presence of TBHP at 200 uM by immunofluorescence analysis", "type": "functional, cell-based"}, "MDA-MB-231 [23]": {"test_system": "MDA-MB-231", "test": "Induction of DNA damage in human MDA-MB-231 cells assessed as upregulation of 53BP1 protein expression measured after 48 hrs by Western blot analysis", "type": "functional, cell-based", "conditions": "dose 0-1.5 µM"}, "Quadruplex DNA [24]": {"test_system": "Quadruplex DNA", "test": "Binding affinity to G4 DNA in telomerase-positive live human MDA-MB-231 cells assessed as colocalization of BG4 and compound at 5 uM incubated for 2 hrs by immunofluorescence assay", "type": "cell-based"}, "[25]": {"test": "Upregulation of CCNB1 gene expression in human MDA-MB-231 cells assessed as fold change at 1 uM measured after 48 hrs by RNA-seq analysis relative to control", "type": "functional"}, "Quadruplex DNA [26]": {"test_system": "Quadruplex DNA", "test": "Binding affinity to c-MYC Pu27 G4 DNA (unknown origin) assessed as change in gibbs free energy at 400 uM by ITC analysis", "type": "nucleic-acid assay"}, "MDA-MB-231 [27]": {"test_system": "MDA-MB-231", "test": "Induction of mitochondrial phagocytosis in human MDA-MB-231 cells assessed as increase in autophagic vesicle formation measured after 48 hrs by MitoTracker Deep Red FM staining based live-cell confocal microscopic analysis", "type": "functional", "conditions": "dose 0-1.5 µM"}, "[28]": {"test": "Toxicity in female Balb/c nude mouse xenografted with human MDA-MB-231 cells assessed as change in mean corpuscular hemoglobin at 2 to 5 mg/kg, iv administered via tail vein every 2 days for 16 days", "type": "organism-based", "conditions": "in vivo, 384 h, dose 2-5 mg/kg, time 16 day"}, "[29]": {"test": "Toxicity in female Balb/c nude mouse xenografted with human MDA-MB-231 cells assessed as change in granulocyte count at 2 to 5 mg/kg, iv administered via tail vein every 2 days for 16 days", "type": "organism-based", "conditions": "in vivo, 384 h, dose 2-5 mg/kg, time 16 day"}, "MDA-MB-231 [30]": {"test_system": "MDA-MB-231", "test": "Inhibition of hTERT protein expression in human MDA-MB-231 cells measured after 48 hrs by Western blot analysis", "type": "functional, cell-based", "conditions": "dose 0-1.5 µM"}, "HepG2": {"test_system": "HepG2", "test": "Cytotoxicity against telomerase-positive human HepG2 cells assessed as inhibition of cell growth incubated for 48 hrs by MTT assay", "type": "functional, cell-based", "conditions": "HepG2, 48 h"}, "[31]": {"test": "Upregulation of FTH1 gene expression in human MDA-MB-231 cells assessed as fold change at 1 uM measured after 48 hrs by RNA-seq analysis relative to control", "type": "functional"}, "[32]": {"test": "Upregulation of IRS1 gene expression in human MDA-MB-231 cells assessed as fold change at 1 uM measured after 48 hrs by RNA-seq analysis relative to control", "type": "functional"}, "MDA-MB-231 [33]": {"test_system": "MDA-MB-231", "test": "Upregulation of glycolysis metabolic pathway in human MDA-MB-231 cells assessed as fold increase at 1.5 uM measured after 2 hrs by Seahorse XF24 analyzer relative to control", "type": "functional"}, "dsDNA": {"test_system": "dsDNA", "test": "Binding affinity to 4a4t duplex DNA (unknown origin) assessed as thermal stability by measuring change in melting temperature at 400 uM […]", "type": "nucleic-acid assay"}}, "note": "pIC50, pKd: −log10 of the molar value. The source made the active and inactive calls. The rule behind the calls is not given here.", "data": [{"smiles": "C[n+]1c(/C=C/c2c[nH]c3ccccc23)cc(/C=C2\\Sc3ccccc3N2CCCN2CCC(C(F)(F)F)CC2)c2ccccc21.[I-]", "values": [{"measurement": "pIC50", "setting": "HeLa", "value": 5.59}, {"measurement": "Activity", "setting": "[1]", "value": "Non-Toxic"}, {"measurement": "Activity", "setting": "[2]", "value": "Non-Toxic"}, {"measurement": "Activity", "setting": "[3]", "value": "Non-Toxic"}, {"measurement": "fold change (FC)", "setting": "Quadruplex DNA [4]", "value": 29}, {"measurement": "ΔTm", "setting": "Quadruplex DNA [5]", "value": 6.4, "unit": "°C"}, {"measurement": "fold change (FC)", "setting": "[6]", "value": ">2"}, {"measurement": "fold change (FC)", "setting": "[7]", "value": ">2"}, {"measurement": "deltaH", "setting": "DNA [8]", "value": -5.52, "unit": "kJ/mol"}, {"measurement": "Activity", "setting": "MDA-MB-231 [9]", "value": "Active"}, {"measurement": "pKd", "setting": "Quadruplex DNA [10]", "value": 4.83}, {"measurement": "pIC50", "setting": "PC-3", "value": 5.60}, {"measurement": "fold change (FC)", "setting": "[11]", "value": ">2"}, {"measurement": "deltaH", "setting": "Quadruplex DNA [12]", "value": -6.65, "unit": "kJ/mol"}, {"measurement": "fold change (FC)", "setting": "[13]", "value": ">2"}, {"measurement": "Activity", "setting": "MDA-MB-231 [14]", "value": "Active"}, {"measurement": "pKd", "setting": "Quadruplex DNA [15]", "value": 5.44}, {"measurement": "Activity", "setting": "MDA-MB-231 [16]", "value": "Active"}, {"measurement": "pKd", "setting": "Quadruplex DNA [17]", "value": 5.94}, {"measurement": "Activity", "setting": "MDA-MB-231 [18]", "value": "Active"}, {"measurement": "fold change (FC)", "setting": "[19]", "value": ">2"}, {"measurement": "ΔTm", "setting": "DNA [20]", "value": -2.51, "unit": "°C"}, {"measurement": "Activity", "setting": "[21]", "value": "Non-Toxic"}, {"measurement": "inhibition", "setting": "MDA-MB-231 [22]", "value": "Active"}, {"measurement": "Activity", "setting": "MDA-MB-231 [23]", "value": "Dose-Dependent Effect"}, {"measurement": "Activity", "setting": "Quadruplex DNA [24]", "value": "Active"}, {"measurement": "fold change (FC)", "setting": "[25]", "value": ">2"}, {"measurement": "deltaG", "setting": "Quadruplex DNA [26]", "value": -27.6, "unit": "kJ/mol"}, {"measurement": "Activity", "setting": "MDA-MB-231 [27]", "value": "Active"}, {"measurement": "Activity", "setting": "[28]", "value": "Non-Toxic"}, {"measurement": "Activity", "setting": "[29]", "value": "Non-Toxic"}, {"measurement": "inhibition", "setting": "MDA-MB-231 [30]", "value": "Dose-Dependent Effect"}, {"measurement": "pIC50", "setting": "HepG2", "value": 5.54}, {"measurement": "fold change (FC)", "setting": "[31]", "value": ">2"}, {"measurement": "fold change (FC)", "setting": "[32]", "value": ">2"}, {"measurement": "fold change (FC)", "setting": "MDA-MB-231 [33]", "value": ">0.8"}, {"measurement": "ΔTm", "setting": "dsDNA", "value": 1.65, "unit": "°C"}]}]}
